For orientation: inhibition in vivo means the share of the control response that was lost under treatment. A low value points to little suppression.

≈ marks a conversion by molar mass, not a printed value.

These results are taken from patent publication US5171746A, “Thiazole and imidazole derivatives and antiulcer composition containing same” (priority 1990, dated 1992).

Data set [1] deals with Water-immersion induced stress ulcer. The data set is described as follows: Water-immersion induced stress ulcer. The note with it: rats, single dose 30 mg/kg in 0.5% CMC one hour prior to stressing (water immersion, 6 h); for inhibition in vivo at 30 mg/kg: Rattus norvegicus. It counts as in vivo, Wister male rats. Here is the method:
Wister male rats (11-week age) fasted for 18 hours were placed in a restraint cage, which was in turn immersed to a depth of the pectoral region in water at 20 to 22° C. to leave the rats under stress for six hours. Then, the rats were drawn up from the water and put down by vertebral dislocation. Afterwards, the stomach was removed, infused with 5 ml of a 5% aqueous solution of formalin and was wholly immersed in the same solution for 30 minutes for fixation. The fixed sample was dissected along the curvature ventriculi major, and the ulcer regions were measured along their major length (in mm) by means of slide calipers. The total sum of the measurements per rat is a value of ulcer index.
The compounds under test shown in TABLE 3, suspended in 0.5% carboxymethylcellulose (CMC), were administered to the rats at a single dose of 30 mg/kg body weight of the compound one hour prior to the stressing. To a control group, only 0.5% CMC was administered. The antiulcer activity was calculated according to the following equation: [formula]

Data set [2] deals with Helicobacter pylori HI-0001. In words: Antimicrobial activity, agar plate dilution method (strain HI-0001). In kind it is cell-based. To be noted: HI0001, 48 h, two days at 37° C., read-out: MINIMUM GROWTH INHIBITION CONCENTRATION
The source says:
(§1) Helicobacter pylori is Gram negative microaerophile which has been recently isolated from human tunica mucosa ventriculi and seems to serve for pathopoiesis and recurrence of ulcer in alimentary canal. The compounds of formula (I) show an antimicrobial activity to inhibit the growth of Helicobacter pylori.
(§2) The media used were that of Muller-Hinton liquid medium (BBL) containing 7% horse serum, and of Heart-Infusin agar medium (Difco) containing 5% horse defibrinized blood. The culture was incubated for two days at 37° C. using Gaspack (BBL) without a catalyst.

In data set [3] the test system is Helicobacter pylori HI-0015. In words: Antimicrobial activity, agar plate dilution method (strain HI-0015). It counts as cell-based. The note with it: HI0015, 48 h, two days at 37° C., read-out: MINIMUM GROWTH INHIBITION CONCENTRATION
Text: as §1, §2

Another data set concerns Ethanol-induced ulcer. In words: Ethanol-induced ulcer. To be noted: rats; 100% ethanol 5 ml/kg orally; compound in 0.5% CMC orally at 5 ml/kg; one hour. It counts as in vivo, Donryu masculine rats. On the procedure: Five (5) ml/kg of 100% ethanol was orally administered to Donryu masculine rats fasted for 48 hours and dehydrated for 24 hours. Then, the compounds under test, suspended in 0.5% CMC, were orally administered to the rats at a dose of 5 ml/kg body weight. One hour later, the rats were put down in a similar manner as mentioned above to remove and treat the stomach.

A short description of another data set: Acute toxicity. In kind it is in vivo. To be noted: mice, three per group.

As for `CCOCC[S+]([O-])c1nc2cc([N+](=O)[O-])ccc2s1` (stereo not shown) [Example 78, 5-nitro-2-[(2-ethoxyethyl)sulfinyl]benzothiazole], 30 mg/kg produced 60.7% inhibition in vivo in data set [1]. Further, the MIC in data set [2] and in data set [3] was 6.25 µg/mL (≈ 20.8 µM) throughout. In data set [1], `[O-][S+](CCN1CCOCC1)c1nc2cc(Cl)ccc2s1` (stereo not shown) [Example 32, 5-chloro-2-[(2-morpholinoethyl)sulfinyl]benzothiazole] registered an inhibition in vivo at 30 mg/kg of 83.1%. Also, the MIC in data set [2] was determined as 1.56 µg/mL (≈ 4.71 µM); in data set [3], 3.13 µg/mL (≈ 9.46 µM). Further, in the data set on Ethanol-induced ulcer, the depression of erosion was determined as 93.0%. For `CCOCC[S+]([O-])c1nc(-c2ccsc2)cs1` (stereo not shown) [Example 14, 2-[(2-ethoxyethyl)sulfinyl]-4-(3-thienyl)thiazole], in data set [1], the inhibition in vivo at 30 mg/kg came to 62.7%. For the same molecule, the values for the MIC in data set [2] and in data set [3] were 50 µg/mL (≈ 174 µM) and 100 µg/mL (≈ 348 µM), respectively. `CCN=C(NC#N)NCCSc1nc2cc(Cl)ccc2s1` [Example 27, N-(5-chlorobenzothiazol-2-yl)thioethyl--N'-cyano--N"-ethylguanidine]: the MIC in data set [2] and in data set [3] was 12.5 µg/mL (≈ 36.8 µM) throughout. Take `COc1ccc2[nH]c([S+]([O-])Cc3ncc(C)c(OC)c3C)nc2c1` (stereo not shown) [Omeprazole, reference compound]: at 30 mg/kg the inhibition in vivo in data set [1] was 90%.

With `CC1(C)S[C@@H]2[C@H](NC(=O)[C@H](N)c3ccccc3)C(=O)N2[C@H]1C(=O)O` [Aminobenzylpenicillin, reference compound], the MIC in data set [2] is 0.025 µg/mL (≈ 0.0715 µM); in data set [3], 0.2 µg/mL (≈ 0.572 µM).

Consider `CCN=C(NC#N)NCC[S+]([O-])c1nc2cc(Cl)ccc2s1` (stereo not shown) [Example 28, N-(5-chlorobenzothiazol-2-yl)sulfinylethyl--N'-cyano--N"-ethylguanidine], for which 30 mg/kg produced 57% inhibition in vivo in data set [1].

The molecule `[O-][S+](CCN1CCOCC1)c1nc2cccc(Cl)c2s1` (stereo not shown) [Example 35, 7-chloro-2-[(2-morpholinoethyl)sulfinyl]benzothiazole] displayed an inhibition in vivo at 30 mg/kg in data set [1] of 72.1%. Also, the MIC in data set [2] was 3.13 µg/mL (≈ 9.46 µM); in data set [3], 6.25 µg/mL (≈ 18.9 µM). With `Clc1ccc2sc(SCCN3CCOCC3)nc2c1` [Example 31, 5-chloro-2-[(2-morpholinoethyl)thio]benzothiazole], the “Acute toxicity (deaths)” value in the data set “Acute toxicity” (intraperitoneal dose of 100 mgkg) and in the data set “Acute toxicity” (peroral dose of 300 mgkg) was “none of the animals were sacrificed” in each case. In turn, `O=C(NCCCl)NCC[S+]([O-])c1nc2cc(Cl)ccc2s1` (stereo not shown) [Example 24, N-(5-chlorobenzothiazol-2-y1)sulfinylethyl--N'-(2-chloroethyl)urea] had an inhibition in vivo at 30 mg/kg in data set [1] of 70.1%.

As for `CCOCC[S+]([O-])c1nc2cccc(Cl)c2s1` (stereo not shown) [Example 61, 7-chloro-2-[(2-ethoxyethyl)sulfinyl]benzothiazole], in data set [1], the inhibition in vivo at 30 mg/kg amounted to 61.8%. For the molecule `CCNC(=O)NCC[S+]([O-])c1nc2cc(Cl)ccc2s1` (stereo not shown) [Example 22, N-(5-chlorobenzothiazol-2-yl)sulfinylethyl--N'-ethylurea], at 30 mg/kg the inhibition in vivo in data set [1] was 63.1%. In the case of `CC1COc2c(N3CCN(C)CC3)c(F)cc3c(=O)c(C(=O)O)cn1c23` (stereo not shown) [Ofloxacin, reference compound], the MIC in data set [2] and in data set [3] was 0.78 µg/mL (≈ 2.16 µM) each time. Turning to `CN1CCCC1CC[S+]([O-])c1nc2cc(Cl)ccc2s1` (stereo not shown) [Example 47, 5-chloro-2-{[2-(N-methylpyrrolidin-2-Y1)ethyl]sulfinyl}benzothiazole], the MIC in data set [2] was 0.39 µg/mL (≈ 1.19 µM); in data set [3], 3.13 µg/mL (≈ 9.52 µM). In turn, `CCOCC[S+]([O-])c1nc2cc(C(F)(F)F)ccc2s1` (stereo not shown) [Example 76, 5-trifluoromethyl-2-[(2-ethoxyethyl)sulfinyl]benzothiazole] gave an inhibition in vivo at 30 mg/kg in data set [1] of 61.3%. The molecule `CCOCC[S+]([O-])c1nc2ccc(Cl)cc2s1` (stereo not shown) [Example 63, 6-chloro-2-[(2-ethoxyethyl)sulfinyl]benzothiazole] showed an inhibition in vivo at 30 mg/kg in data set [1] of 76.5%. For the same molecule, the values for the MIC in data set [2] and in data set [3] were 3.13 µg/mL (≈ 10.8 µM) and 6.25 µg/mL (≈ 21.6 µM), respectively.

Regarding `CCOCC[S+]([O-])c1ncc(-c2ccccc2)s1` (stereo not shown) [Example 12, 2-[(2-ethoxyethyl)sulfinyl]-5-phenylthiazole], in data set [1], at 30 mg/kg the inhibition in vivo was 52.5%. The same measure, in the same setting: the value for `CCOCC[S+]([O-])c1nc(-c2cccnc2)cs1` (stereo not shown) [Example 2, 2-[(2-ethoxyethyl)sulfinyl]-4-(3-pyridyl)thiazole] was 72.5%.

Consider `[O-][S+](CCN1CCOCC1)c1nc2ccc(Cl)cc2[nH]1` (stereo not shown) [Example 49, 5-chloro-2-[(2-morpholinoethyl)sulfinyl]benzimidazole], for which 30 mg/kg produced 63.6% inhibition in vivo in data set [1]. Turning to `O=C(NCCCl)NCCSc1nc2cc(Cl)ccc2s1` [Example 23, N-(5-chlorobenzothiazol-2-yl)thioethyl--N'-(2-chloroethyl)urea], the MIC in data set [2] and in data set [3] was 12.5 µg/mL (≈ 35.7 µM) throughout. Turning to `CCOCC[S+]([O-])c1nc2ccc(OC)cc2[nH]1` (stereo not shown) [Example 72, 5-methoxy-2-[(2-ethoxyethyl)sulfinyl]benzimidazole], in data set [1], the inhibition in vivo at 30 mg/kg turned out to be 65.6%. Consider `CCNC(=S)NCCSc1nc2cc(Cl)ccc2s1` [Example 25, N-(5-chlorobenzothiazol-2-yl)thioethyl--N'-ethylthiourea], for which the inhibition in vivo at 30 mg/kg in data set [1] amounted to 64.2%. Moreover, the MIC in data set [2] and in data set [3] was 0.025 µg/mL (≈ 0.0753 µM) each time. As for `[O-][S+](CCOCCCl)c1nc2cc(Cl)ccc2s1` (stereo not shown) [Example 67, 5-chloro-2-{[2-(2-chloroethoxy)ethyl]sulfinyl}benzothiazole], in data set [1], the “Inhibition (%)” value is listed as 53.3%. For `CC(C)N(CC[S+]([O-])c1nc(-c2cccnc2)cs1)C(C)C` (stereo not shown) [Example 8], the inhibition in vivo at 30 mg/kg in data set [1] turned out to be 70.5%. The molecule `[O-][S+](CCN1CCOCC1)c1nc2ccc(Cl)cc2s1` (stereo not shown) [Example 37, 6-chloro-2-[(2-morpholinoethyl)sulfinyl]benzothiazole] came in with an inhibition in vivo at 30 mg/kg in data set [1] of 78%. For the same molecule, the results for the MIC in data set [2] and in data set [3] were 3.13 µg/mL (≈ 9.46 µM) and 6.25 µg/mL (≈ 18.9 µM), respectively.
